Measurements published in publication PMC12525728, “Safety, Pharmacokinetics, Translational and Molecular Mechanistic Insights on the Prostate Cancer Recurrence Suppressor Pseurotin A” (Molecules, 2025).

Tests used:
Swiss albino mice = test system: Swiss albino mice; design: method as in PMID 36771126; details: cited from earlier work
[1] = Qualitative tissue distribution (biodistribution) study after IP dosing; assay type: in vivo, Swiss albino mice; details: IP 125 mg/kg, 7 min after dosing
Protocol: (§1) Five µL of the IS ([…]) and 20 µL of 50, 40, 30, 20, 10, 8, and 4 µg/mL PsA standard solutions were combined with 15 µL freshly extracted blank mouse plasma. 300 µL of a 70% EtOAc/30% isopropanol mixture was added and vortexed for 30 s. Following centrifugation at 15,000× g for 10 min, the supernatant was transferred to a 2 mL Eppendorf tube for nitrogen evaporation. The residues were reconstituted in 25 µL HPLC-grade MeOH before being subjected to 30 s sonication followed by centrifugation at 15,000× g for 10 min. Afterwards, the entire sample was immediately injected for RP-HPLC analysis. The mouse plasma samples used in the PK study were subjected to the same extraction method, minus the addition of the PsA standard solutions. After weighing, each mouse organ was reconstituted in 500 µL PBS, then homogenized using the MISONIX Sonicator (Division of QSonica LLC, Newtown, CT, USA). Samples were centrifuged at 15,000× g for 10 min, and the supernatant was collected and transferred to a 2 mL Eppendorf. About 5 µL of IS (25 µL/mL) and 300 µL of a 70% EtOAc/30% isopropanol mixture were added to 100 µL of supernatant and vortexed for 30 s. Following centrifugation at 15,000× g for 10 min, the supernatant was transferred to a 2 mL Eppendorf tube and evaporated under N2. The remains were reconstituted in 40 µL HPLC-grade methanol before being subjected to 30 s sonication followed by centrifugation at 15,000× g for 10 min.
For the biodistribution study, four healthy male and two healthy female Swiss albino mice were randomly selected and placed in 2 groups (n = 3/group). The mice received free access to drinking water and pelleted regular rodent chow (Cat# 7012, Envigo/Teklad, Madison, WI, USA) until the day before experimentation, after which they were fasted for 8 h and allowed only free access to drinking water. One group was IP administered 125 mg/kg PsA formulated in PBS-DMSO (925:75) + 0.2% Tween 80 at a body weight-adjusted volume not exceeding 300 µL. […] Collected samples were immediately extracted using the described method above and analyzed using HPLC.

[2] = Chemical stability of PsA in mice plasma (HPLC); assay type: in vitro ADME; details: for Stability 24 h Room Temperature, Accuracy (%) / Stability −20 °C for 2 Weeks, Accuracy (%) / Stability Freeze-Thaw Cycles, Accuracy (%): mice plasma, n = 3; for Stability Freeze-Thaw Cycles, Accuracy (%): three cycles
Protocol: Chromatographic analysis was conducted on a Shimadzu HPLC system (Shimadzu USA Manufacturing Inc., Canby, OR, USA) equipped with an SPD-20A UV detector, 20 µL manual sampler, LC-20AD pump, a degasser, and an automated temperature-controlled column compartment. The UV detector, column oven, and LC-20AD pump were coupled to the Shimadzu system and controlled through Lab Solutions software, v5.111. Stationary phase separation was carried out using a Shimadzu Shim-Pack GWS C18 column (4.6 × 250 mm, 5 µm) equipped with a Zorbax ODS guard column (4.6 × 12.5 mm, 5 µm) by gradient elution with the column temperature maintained at 35 °C. The UV detector wavelength was set and measured at 254 nm. A constant flow rate of 1.0 mL/min and manual injection of 20 µL were employed throughout the HPLC analysis. A mobile phase consisting of aqueous HCOOH (0.1%, v/v, mobile system A) and HPLC grade CH3CN (mobile system B) utilized with a gradient elution of 30–60% B at 0–5 min, 60–85% B at 5–8 min, 85–95% B at 8–11.5 min, and 95% B at 11.5–18 min. The post-run re-equilibration time was 5 min.
as §1
The stability of PsA at room temperature was determined by preparing six separate mouse plasma samples for each concentration. Three samples for each concentration were immediately extracted and injected into the HPLC. The three remaining samples were left on a lab bench protected from light for 24 h before being extracted and injected into the HPLC. The concentrations measured at the 0 and 24 h time points were compared. The stability of PsA after three freeze-thaw cycles was assessed by preparing six separate mouse plasma samples for each concentration. Three samples for each concentration were immediately extracted and injected into the HPLC. The three remaining samples for each concentration were frozen and thawed in a −80 °C freezer three separate times before being extracted and injected into the HPLC. The stability of PsA at −20 °C for 2 weeks was determined by preparing six separate mouse plasma samples for each concentration. Three samples for each concentration were immediately extracted and injected into the HPLC. The three remaining samples were left in a −20 °C freezer for two weeks before being thawed, extracted, and analyzed on the HPLC.

CC/C=C\[C@H](O)[C@H](O)C1=C(C)C(=O)[C@]2(O1)C(=O)N[C@@](OC)(C(=O)c1ccccc1)[C@@H]2O [PsA, pseurotin A]
decrease in body weight (Swiss albino mice; 500 mg/kg female dosing group, oral gavage, after 14 days): 45%
major organ toxicity (liver, lung, heart, brain, kidneys) (Swiss albino mice; 14-day acute toxicity, 10, 250 and 500 mg/kg oral gavage): neither major organ toxicity
LD50 (Swiss albino mice; Up-and-Down acute toxicity procedure, oral, male and female Swiss albino mice): > 550 mg/kg
PsA HPLC peak in brain tissue (BBB crossing) [1]: did not display PsA peak
PsA HPLC peak in liver, kidney, heart and spleen tissue [1]: prominent PsA peak
PsA HPLC peak in plasma [1]: prominent PsA peak
Stability 24 h Room Temperature, Accuracy (%) ([2]; 4 µg/mL): 35.2%
Stability −20 °C for 2 Weeks, Accuracy (%) ([2]; 4 µg/mL): 83.6%
Stability Freeze-Thaw Cycles, Accuracy (%) ([2]; 4 µg/mL): 94.0%
Stability 24 h Room Temperature, Accuracy (%) ([2]; 50 µg/mL): 35.5%
Stability −20 °C for 2 Weeks, Accuracy (%) ([2]; 50 µg/mL): 93.5%
Stability Freeze-Thaw Cycles, Accuracy (%) ([2]; 50 µg/mL): 108.1%
Stability 24 h Room Temperature, Accuracy (%) ([2]; 250 µg/mL): 48.8%
Stability −20 °C for 2 Weeks, Accuracy (%) ([2]; 250 µg/mL): 90.6%
Stability Freeze-Thaw Cycles, Accuracy (%) ([2]; 250 µg/mL): 100.6%
concentration loss ([2]; mouse plasma, room temperature, 24 h): over 50%
